Source: patent US10092574B2, “Inhibitors of polynucleotide repeat-associated RNA foci and uses thereof” (VALORISATION-RECHERCHE, LIMITED PARTNERSHIP, priority 2013, dated 2018)

Columns and labels:
luciferase-CUG200 mRNA = experiment: Dose-response of nuclear export/translation of luciferase-CUG200 reporter mRNA in C2C12 myoblast cell line; assay type: cell-based, murine; conditions: for EC50: Mus musculus, read-out: EC50 (luciferase from luciferase-CUG200 mRNA)
Protocol: C2C12 murine myoblast cells and Phoenix retrovirus packaging cells were cultivated in DMEM supplemented with 10% FBS. Phoenix cells were transfected with the desired retroviral vector by the Calcium-Phosphate method and, 48 hours after transfection, retrovirus-containing supernatant was supplemented with polybrene and deposited on cells to infect. C2C12 Tet-Off cell lines were generated by infecting cells with the retrovirus pTet-Off IN (Clontech) and selecting for Doxycycline (Dox)-regulated clones. Cell lines expressing the LacZ-5CUG, LacZ-145CUG, LUC-5CUG or LUC-200CUG transcripts were generated by infecting C2C12 Tet-Off cells with the desired reporter construct in the pRevTRE plasmid (Clontech) and selecting for stable clones with inducible expression. The 3′UTR of human DMPK containing 5 CTG repeats or 200 CTG repeats was cloned downstream of the luciferase or beta-galactosidase open reading frames. The C2C12 cell line(s) are cultivated in media containing 1 ng/ml Dox to repress transcription of the reporter constructs.
The two compounds identified by the screening assay described above, which were named compound 15 and 32, have the structure depicted in FIG. 3. Compound 15 has a para-sulfonamide structure, and compound 32 is a benzyl methylthiophene amide. […] The dose-response effect of candidate drugs 15 and 32 on the nuclear export of luciferase-CUG200 mRNA was assessed in the C2C12 myoblast cell line. The amount of CUG repeat RNA that get exported and properly translated into luciferase in response to treatment with varying concentrations of target drugs was measured in order to determine the dose-response curves.

MBNL2 exon 7 = experiment: RT-PCR alternative splicing assay, MBNL2 exon 7; assay type: cell-based, human; conditions: DM1 myoblasts
Protocol: Human myoblasts were obtained from the Myosix institute associated with the Association Frangaise contre les Myopathies (AFM). Five primary myoblast lines were obtained as controls, and one line from a DM1 patient with a 3.8 Kb CTG triplet amplification corresponding to approximately 1250 CTG repeats. The human myoblasts are cultivated in HAM-F10 media (SIGMA N6635) with 15% FBS, 1% chick embryo extract, and 390 ng/ml of dexamethasone. One day before adding compounds, 2×10^5 cells were plated in 100 mm plates (for CUGBP1 western blot or RT-PCR alternative splicing assay) or 2×10^4 cells/well are seeded in 12-well plates containing 12 mm round glass coverslips (for FISH to detect RNA foci). […]
For Western blots, CUGBP1 was detected with the 3B1-3D11 monoclonal antibody (mAb) (SIGMA C5112) and GAPDH was detected with the 6C5 mAb (Millipore MAB374). The enhanced chemiluminescence signal (ECL) was acquired and quantified with the ChemiDoc™ MP imaging system (Bio-Rad). […] The alternative splicing of the hnRNPA2/B1 transcript was detected with the primers 5′-[…]-3′ (SEQ ID NO:7) and 5′-[…]-3′ (SEQ ID NO:8). PCR was performed with Taq using standard conditions but the number of amplification cycles was optimized to be in the quantitative range for each gene. […]

| SMILES | concentration at which plateau / peak of maximal effect was reached (luciferase-CUG200 mRNA) [µM] | EC50 (luciferase-CUG200 mRNA) [µM] | dose-response effect on splicing of MBNL2 mRNA (MBNL2 exon 7; 5 to 60 μM, 7 days (FIG. 12A)) | inclusion of MBNL2 exon 7 (MBNL2 exon 7; 20 μM, 7 days, from 40% (FIG. 8D)) [%] |
| --- | --- | --- | --- | --- |
| CCCc1c(C(=O)N(Cc2ccccc2)Cc2cccs2)cnn1-c1ccccc1 [Compound 32] | 5 | 2.5 | clear dose-response effect |  |
| CCCN(CCC)S(=O)(=O)c1ccc(NS(=O)(=O)Cc2ccccc2)cc1 [Compound 15] | 15 | 6.8 |  | 25 |
